Experimental data: patent US9340530B2, “Preparation and use of bicyclic himbacine derivatives as PAR-1 receptor antagonists” (Merck, Sharp & Dohme Corp., priority 2012, dated 2016)

Biological target: PAR1 (Homo sapiens (Human), UniProt P25116)
Assay: Par-1 FLIPR assay (calcium, HEK 293 cells, PAR1 activating peptide)
Format: cell-based
Conditions: PAR1 selective receptor-activating peptide at 80% activation
Procedure: HEK 293 Cells were grown in media containing DMEM, 10% FBS pen/strep/L-Glutamine and non-essential amino acids. The cells were plated in 384-well PDL coated plates at 12000 cells/well and incubated overnight at 37° C./5% CO2. Media was then removed from the cells, which were then incubated with buffer (Hank's containing HEPES and Chaps) containing FLIPR calcium-5 dye, made with buffer containing probenecid, for 60 minutes at 37° C. Varying concentrations of compound in a final concentration of 5% DMSO were then added to the cells and incubated at 25° C. for 30 minutes. […] The FLIPR reads at an excitation wavelength of 480 nm and an emission wavelength of 535 nm, and performs 60 scans over a 1-2 min reading time. The data were analyzed by taking the peak signal over a portion of the range of the 60 scans and dividing this signal by the minimum signal for that same range.

Chain of PAR1 (P25116 22-425): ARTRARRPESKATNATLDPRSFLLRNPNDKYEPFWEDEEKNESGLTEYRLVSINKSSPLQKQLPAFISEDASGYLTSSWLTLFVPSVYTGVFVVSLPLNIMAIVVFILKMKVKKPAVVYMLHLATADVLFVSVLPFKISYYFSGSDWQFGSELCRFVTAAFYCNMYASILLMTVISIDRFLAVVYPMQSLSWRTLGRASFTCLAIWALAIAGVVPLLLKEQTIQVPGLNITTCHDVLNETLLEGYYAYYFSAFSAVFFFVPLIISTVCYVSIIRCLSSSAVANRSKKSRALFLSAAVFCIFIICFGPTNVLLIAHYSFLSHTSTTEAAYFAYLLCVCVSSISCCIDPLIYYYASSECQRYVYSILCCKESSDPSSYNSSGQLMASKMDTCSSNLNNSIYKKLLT

Row | Compound | IC50
1 | C[C@H]1OC(=O)[C@]2(C(O)c3ncco3)CC(F)(F)[C@@H](C)[C@H](/C=C/c3ccc(-c4ccccc4C#N)cn3)[C@H]12 (single isomer, unassigned) [Example 23a] | 3.1 nM
2 | C[C@H]1OC(=O)[C@]2(C(O)c3ncco3)CC(F)(F)[C@@H](C)[C@H](/C=C/c3ccc(-c4ccccc4C#N)cn3)[C@H]12 (single isomer, unassigned) [Example 23b] | 1.2 nM
3 | C[C@H]1OC(=O)[C@@H]2CC(F)(F)[C@@H](C)[C@H](/C=C/c3ccc(-c4ccccc4C#N)cn3)[C@H]12 [Example 1] | 1.6 nM
4 | C[C@H]1OC(=O)C2CC(F)(F)[C@@H](C)[C@H](/C=C/c3ccc(-c4ccccc4Cl)cn3)C21 (some centres unmarked) [Example 4] | 2.7 nM
5 | C[C@H]1OC(=O)C2CC(F)(F)[C@@H](C)[C@H](/C=C/c3ccc(-c4ccccc4OC(F)(F)F)cn3)C21 (some centres unmarked) [Example 5] | 4.7 nM
6 | C[C@H]1OC(=O)[C@]2(N)CC(F)(F)[C@@H](C)[C@H](/C=C/c3ccc(-c4ccccc4C#N)cn3)[C@H]12 [Example 7] | 7.2 nM
7 | C[C@H]1OC(=O)[C@]2(O)CC(F)(F)[C@@H](C)[C@H](/C=C/c3ccc(-c4ccccc4C#N)cn3)[C@H]12 [Example 8] | 2 nM
8 | C[C@H]1OC(=O)[C@]2(O)CC(F)(F)[C@@H](C)[C@H](/C=C/c3ccc(-c4ccccc4OC(F)(F)F)cn3)[C@H]12 [Example 9] | 4.5 nM
9 | COC(=O)[C@@]12CC(F)(F)[C@@H](C)[C@H](/C=C/c3ccc(-c4cccc(F)c4)cn3)[C@@H]1[C@@H](C)OC2=O [Example 11] | 3.4 nM
10 | C[C@H]1OC(=O)[C@]2(C(=O)O)CC(F)(F)[C@@H](C)[C@H](/C=C/c3ccc(-c4cccc(F)c4)cn3)[C@H]12 [Example 12] | 10.9 nM
11 | C[C@H]1OC(=O)[C@]2(CO)CC(F)(F)[C@@H](C)[C@H](/C=C/c3ccc(-c4ccccc4C#N)cn3)[C@H]12 [Example 15] | 2.7 nM
12 | C[C@H]1OC(=O)[C@]2(C(=O)NC3CCC3)CC(F)(F)[C@@H](C)[C@H](/C=C/c3ccc(-c4ccccc4C#N)cn3)[C@H]12 [Example 18] | 3.3 nM
13 | C[C@H]1OC(=O)[C@]2(C(O)c3ccccn3)CC(F)(F)[C@@H](C)[C@H](/C=C/c3ccc(-c4ccccc4C#N)cn3)[C@H]12 (some centres unmarked) [Example 19] | 3 nM
14 | CC1[C@H](/C=C/c2ccc(-c3ccccc3C#N)cn2)C2[C@@H](C)OC(=O)[C@]2(C(O)c2cscn2)CC1(F)F (some centres unmarked) [Example 20a] | 0.9 nM
15 | C[C@H]1OC(=O)[C@]2(C(O)c3cscn3)CC(F)(F)[C@@H](C)[C@H](/C=C/c3ccc(-c4ccccc4C#N)cn3)[C@H]12 (some centres unmarked) [Example 20b] | 1.2 nM
16 | CC1[C@H](/C=C/c2ccc(-c3ccccc3C#N)cn2)C2[C@@H](C)OC(=O)[C@]2(C(O)c2nccs2)CC1(F)F (some centres unmarked) [Example 21a] | 2.5 nM
17 | C[C@H]1OC(=O)[C@]2(C(O)c3nccs3)CC(F)(F)[C@@H](C)[C@H](/C=C/c3ccc(-c4ccccc4C#N)cn3)[C@H]12 (some centres unmarked) [Example 21b] | 1.2 nM
18 | CC1[C@H](/C=C/c2ccc(-c3ccccc3C#N)cn2)C2[C@@H](C)OC(=O)[C@]2(C(O)c2cocn2)CC1(F)F (some centres unmarked) [Example 22a] | 1.9 nM
19 | C[C@H]1OC(=O)[C@]2(C(O)c3cocn3)CC(F)(F)[C@@H](C)[C@H](/C=C/c3ccc(-c4ccccc4C#N)cn3)[C@H]12 (some centres unmarked) [Example 22b] | 2.2 nM
20 | C[C@H]1OC(=O)[C@]2(C3(O)CNC3)CC(F)(F)[C@@H](C)[C@H](/C=C/c3ccc(-c4ccccc4C#N)cn3)[C@H]12 [Example 24] | 40.7 nM
21 | C[C@H]1OC(=O)[C@]2(CC#N)CC(F)(F)[C@@H](C)[C@H](/C=C/c3ccc(-c4ccccc4Cl)cn3)[C@H]12 [Example 25] | 3.3 nM
22 | C[C@H]1OC(=O)[C@]2(Cc3ncon3)CC(F)(F)[C@@H](C)[C@H](/C=C/c3ccc(-c4ccccc4Cl)cn3)[C@H]12 [Example 26] | 1.2 nM
23 | Cc1nnc(C[C@@]23CC(F)(F)[C@@H](C)[C@H](/C=C/c4ccc(-c5ccccc5Cl)cn4)[C@@H]2[C@@H](C)OC3=O)o1 [Example 28] | 0.9 nM
